According to patent publication US4743617A, “Heterocyclyl-2-propyn-1-amines” (Merrell Dow Pharmaceuticals Inc., priority 1987, dated 1988):

Legend:
[1] = test system: spontaneously hypertensive rats; assay: lowering of mean blood pressure in conscious spontaneously hypertensive rats (Table II, DBH inhibitory activity in vivo); settings: 30 mg/kg (ip), unanesthetized spontaneously hypertensive rats
Experimental: The ability of the compounds of this invention to lower blood pressure can be determined in vivo using standard and well-known procedures such as those employed for the continuous recording of arterial blood pressure in conscious animals. For instance, test compounds are administered intraperitoneally (ip) to unanesthetized spontaneously hypertensive rats and the arterial blood pressure is monitored continuously. In tests utilizing the above procedure, the antihypertensive effect of the test compound is readily apparent as indicated by the degree of lowering of mean blood pressure (MBP) noted in Table II.

[2] = test system: dopamine-beta-hydroxylase (DBH); assay: time-dependent DBH inhibitory activity in vitro (oxygen uptake, tyramine substrate); format: biochemical; settings: Concentration 5 × 10^-5 M, preferably pH 5.0, 37° C.
Experimental: The DBH inhibitory properties of the compounds of this invention can readily be determined by standard and well-known procedures. […] The test compound is added at the desired concentration, and the system is incubated. At different time internals, aliquots are taken and DBH activity is measured using tyramine as the substrate. The reaction is followed by measuring oxygen uptake using a polarographic electrode and an oxygen monitor by the method of S. May et al., J. Bio. Chem. 256, 2258 (1981).

NCC#Cc1cccs1 [3-(2-thienyl)-2-propyn-1-amine]
Duration [1]: 14 h | Max Change MBP +/St. dev. [1]: -20+/-8 mm Hg | t 1/2: time required for 50% log activity remaining [2]: 9.2 min.
